Assay results taken from US11766407B2, “Polymerized whey protein encapsulated antioxidant compound and a process for preparation of same” (FoodScience Corporation, priority 2020, dated 2023).

Key:
in vivo = details: male, ICR, mouse, po
Procedure: ICR mice, male, SPF, 3 weeks, weighing from 18 to 22 g were provided by Beijing HFK Bioscience Co., Ltd (Beijing, China).
All mice were housed in plastic lab animal cages in a ventilated room. The room was maintained at 20±2° C. and 60±10% relative humidity with a 12 h light/dark cycle. Water and commercial laboratory complete food for mice were available ad libitum. They were acclimated to this environment for 7 days before treatment. All animal experiments were approved by the Animal Welfare and Research Ethics Committee at Jilin University (Approval ID: SY201905018).
Blood collection. Before blood collection, 30 μL heparin solution was added to 1.5 mL centrifugal tubes and vortexed. The blood samples (about 0.5 mL) was collected by removing one eye of the mice. The blood was centrifuged at 6000 rpm at room temperature for 2 min. The upper plasma was transferred to a new centrifugal tube.
Pharmacokinetic parameters were calculated using a mouse model.

[1] = Physicochemical characterization of PWPC-GSH (particle size, zeta potential, rheology, TEM); details: GSH alone

For `N[C@@H](CCC(=O)N[C@@H](CS)C(=O)NCC(=O)O)C(=O)O` [GSH, Glutathione], which AUC (in vivo) is on record?
The AUC was 19200 ng·h/mL.

What about the Cmax (in vivo) of the same molecule?
The Cmax was 7370 ng/mL.

What about the Tmax (in vivo) of the same molecule?
The Tmax was 2 h.

What about the particle size [1] of the same molecule?
Its particle size is 287.83±6.18 nm.
